This note sets out measurements from article PMC6811774, “Potent, selective, and subunit‐dependent activation of TRPC5 channels by a xanthine derivative” (British Journal of Pharmacology, 2019).

Several values for one entry are separate records, joined by “and”; a condition that tells them apart may be missing. Identical values can stand only once. Like-named read-outs stand apart in the source and are kept apart here.

In this test the target is T1, TRPC5:C5 channels (hTRPC5) (Homo sapiens, UniProt Q9UL62).
T1 construct: expressed in transfected cells
T1 sequence (Q9UL62 1-973): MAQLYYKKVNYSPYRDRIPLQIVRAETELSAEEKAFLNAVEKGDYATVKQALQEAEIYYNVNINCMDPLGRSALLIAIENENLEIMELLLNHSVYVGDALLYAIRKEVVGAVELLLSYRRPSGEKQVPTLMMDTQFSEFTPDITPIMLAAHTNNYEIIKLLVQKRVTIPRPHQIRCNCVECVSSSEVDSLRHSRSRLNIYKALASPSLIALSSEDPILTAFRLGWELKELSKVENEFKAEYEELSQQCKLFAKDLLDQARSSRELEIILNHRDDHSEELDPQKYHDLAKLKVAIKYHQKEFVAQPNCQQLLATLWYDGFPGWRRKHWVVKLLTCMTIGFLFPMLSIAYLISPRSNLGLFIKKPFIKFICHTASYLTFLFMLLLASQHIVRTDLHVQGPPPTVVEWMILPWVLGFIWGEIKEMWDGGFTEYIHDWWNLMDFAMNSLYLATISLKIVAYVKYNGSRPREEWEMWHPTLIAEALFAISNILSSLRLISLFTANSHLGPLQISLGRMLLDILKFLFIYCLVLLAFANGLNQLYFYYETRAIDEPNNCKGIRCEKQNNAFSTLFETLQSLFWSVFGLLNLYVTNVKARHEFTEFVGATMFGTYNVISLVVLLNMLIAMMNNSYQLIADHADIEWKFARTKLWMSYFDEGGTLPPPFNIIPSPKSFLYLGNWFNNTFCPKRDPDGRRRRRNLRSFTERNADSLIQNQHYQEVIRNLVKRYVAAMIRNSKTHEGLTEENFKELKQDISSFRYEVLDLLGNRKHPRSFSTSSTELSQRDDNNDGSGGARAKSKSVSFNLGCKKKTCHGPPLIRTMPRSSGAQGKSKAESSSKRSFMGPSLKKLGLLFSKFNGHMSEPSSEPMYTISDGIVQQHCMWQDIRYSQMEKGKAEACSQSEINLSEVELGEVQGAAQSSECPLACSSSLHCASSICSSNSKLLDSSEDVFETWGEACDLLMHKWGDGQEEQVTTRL
The experiment in a line: [Ca2+]i measurement (Fura-2, FlexStation) in (Tet+) HEK T-REx cells expressing hTRPC5. It is filed as cell-based. As to the method:
HEK T‐REx™ cell line was transfected with TRPC5‐SYFP2 or TRPC4‐SYFP2 using FuGENE® HD transfection reagent. After 48 hr, cells were put under antibiotic selection using 400 μg·ml^−1 zeocin and 10 μg·ml^−1 blasticidin S (Invivogen, San Diego, California, USA). Medium changes were carried out regularly to remove dead cells. HEK T‐REx cells expressing tetracycline‐inducible human TRPC5, TRPC4–C1, and TRPC5–C1 were created as described previously (Akbulut et al., 2015; Ludlow et al., 2017; Rubaiy, Ludlow, Henrot, et al., 2017). TRPC5–C1 and TRPC4–C1 concatemers allow expression of functional channels with defined 2:2 stoichiometry that display ion permeability and current–voltage relationships distinct from those of homomeric TRPC4:C4 or TRPC5:C5 channels and consistent with those obtained upon co‐expression of TRPC1 with TRPC4 or TRPC5 (Ludlow et al., 2017; Rubaiy, Ludlow, Bon, & Beech, 2017; Rubaiy, Ludlow, Henrot, et al., 2017). Cells were cultured in DMEM‐F12 GlutaMAX (Invitrogen, Paisley, UK) containing 10% FBS (Sigma‐Aldrich, Gillingham, UK), with the addition of blasticidin (10 μg·ml^−1) and zeocin (400 μg·ml^−1) to maintain the stable incorporation of the tetracycline repressor and the channel of interest, respectively. Expression of proteins was induced by the addition of tetracycline (1 μg·ml^−1, 24 hr). Cells were maintained in a humidified incubator with 5% CO2 at 37°C. HEK 293 cells stably expressing tetracycline‐regulated human http://www.guidetopharmacology.org/GRAC/ObjectDisplayForward?objectId=494 were prepared similarly and have also been described previously (McHugh, Flemming, Xu, Perraud, & Beech, 2003). For experiments using transient co‐expression of TRPC1 and TRPC5, HEK cells at 40–60% confluency were transfected with pIRES2‐AcGFP1 and pIRES2‐DsRed‐Express2 plasmids containing human TRPC1 and TRPC5, respectively, using Lipofectamine 3000 (ThermoFisher Scientific, Yokohama, Japan). All experiments using transient expression were performed within 48 hr after transfection. A498 cells were cultured in Minimum Essential Medium containing Earle's salts (ThermoFisher Scientific, Loughborough, UK), supplemented with 10% FBS and penicillin–streptomycin (100 units per ml^−1, 100 μg·ml^−1; ThermoFisher Scientific, Loughborough, UK). CHO cells stably expressing http://www.guidetopharmacology.org/GRAC/ObjectDisplayForward?objectId=510 were maintained in Ham's Nutrient Mixture F12 (ThermoFisher Scientific, Loughborough, UK) supplemented with 10% FBS, penicillin–streptomycin, and 1 mg·ml^−1 G418 (InvivoGen, San Diego, California, USA). For experiments using hTRPC3 and hTRPC6, WT HEK 293 cells were transfected with hTRPC3 (Naylor et al., 2016) or hTRPC6 (cloned into pcDNA3) using jetPRIME® transfection reagent (VWR, Lutterworth, UK). […]

A word on the EC50: it is the concentration giving half of the maximal effect. Regarding `Cn1c(=O)n(CCCO)c(=O)c2c1nc(Oc1ccc(Cl)c(OC(F)(F)F)c1)n2Cc1ccc(Cl)cc1` [AM237], the “Concentration leading to a sustained increase in [Ca2+]i” value (cells overexpressing TRPC5 or TRPC5-SYFP2) was no less than 3 nM. Besides, the EC50 is 20 nM (hTRPC5, response at 250–295 s vs baseline, read-out: EC50, activation (increase in [Ca2+]i)); 15 to 20 nM and 10 to 20 nM (range over TRPC5 and TRPC5-SYFP2 experiments, read-out: EC50, TRPC5:C5 activation in [Ca2+]i assay (summary range)). The “Hill slope, activation” value (hTRPC5 concentration–response curve) worked out at 1.7.
